Measured values reported in PubChem BioAssay AID493102 (Broad Institute, 2011).

test system: SK-MEL-5 TRPM1-promoter luciferase reporter, 24 h; assay: TRPM1 promoter luciferase signal decrease, dose response, MITF inhibitor project, cell-based, SK-MEL-5, cherry-picked, set 4 (AID 493102);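 note: actives lower the luciferase signal so the potency reflects inhibition of reporter expression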

| Compound | AC50 [µM] |
| --- | --- |
| COc1ccc(C(=O)/C(C#N)=N/Nc2ccc([N+](=O)[O-])cc2)cc1 | 8.26 |
| Cc1ccc(S(=O)(=O)Nc2cccc3cccnc23)cc1 | 5.55 |
| N#CC1=C(c2ccccc2)/C(=C/c2ccccc2)OC1=O | 4.25 |
| N#Cc1c(NC(=O)CSc2ncn[nH]2)sc2c1CCCC2 | 0.599 |
| Cc1ccccc1OCC(=O)N/N=C/c1ccc([N+](=O)[O-])o1 | 8.22 |
| Cn1cccc1-c1cc(C(=O)N/N=C/c2cc(Br)ccc2O)[nH]n1 | 5.25 |
| COc1ccc(-n2ncc3c(N4CCCCC4)ncnc32)cc1 | 1.48 |
| CC(=O)OCCCNc1cc(Sc2ccc(Cl)cc2)c2nonc2c1[N+](=O)[O-] | 10.9 |
| C=CCN1C(=O)/C(=C/c2cc(C)n(-c3cccnc3)c2C)C(=O)NC1=S | 16.8 |
| CCOC(=O)/C=c1\s/c(=C\c2ccc3cc(OC)ccc3c2)c(=O)n1CC(=O)NCC1CCCO1 (stereo not given) | 5.73 |
| O=C(NC1=NCCS1)C1COc2ccccc2O1 (stereo not given) | 1.7 |
| CC(Oc1ccccc1)C(=O)Nc1nc(-c2ccccn2)cs1 (stereo not given) | 14.1 |
| O=C(/C=C/Nc1ccccc1Br)c1ccccn1 | 0.899 |
| Cc1ccc2c(c1)Oc1ccc(NC(=O)CCl)cc1C(=O)N2 | 10.1 |
| O=C(Nc1ccc(S(=O)(=O)NC2=NCCCCC2)cc1)c1ccc([N+](=O)[O-])s1 | 5.11 |
| COc1ccc(C(=O)NC(=O)Nc2cc(C)ccn2)cc1 | 4.96 |
| O=S(=O)(c1ccc(Cl)cc1)N1CCN(Cc2ccc(O)c3ncccc23)CC1 | 4.37 |
| O=C(c1ccc(S(=O)(=O)Cc2ccccc2Cl)c([N+](=O)[O-])c1)N1CCN(c2ccccn2)CC1 | 9.49 |
| Cc1ccc(C(=O)c2cccc(N)c2)cc1C | 3.62 |
| O=C(O)/C=C/C(=O)c1ccc2c(c1)CCc1ccccc1-2 | 15 |
| O=C(N/N=C/c1ccc([N+](=O)[O-])o1)c1ccccc1-n1cccc1 | 17.1 |
| O=C(NCc1ccccc1)C(=O)Nc1cccc(C(=O)O)c1 | 4.85 |
| COC(=O)C1=C(C)N(Cc2ccccc2)C(=NCC(C)C)N[C@H]1c1cccc(C(F)(F)F)c1 | 15 |

| Compound | AC50 [µM] |
| --- | --- |
| O=C(c1ccccc1)C(CN1CCCC1)c1ccccc1 (stereo not given) | 5.33 |
| O=C(Nc1cc(-c2nc3ncccc3o2)ccc1Cl)c1ccc([N+](=O)[O-])o1 | 5.76 |
| CS(=O)(=O)c1ccc(S(=O)CC(=O)OCc2ccccc2)c([N+](=O)[O-])c1 (stereo not given) | 5.46 |
| Cc1cnc(NC(=O)c2nn(C)cc2[N+](=O)[O-])s1 | 20.6 |
| COc1ccc(NC(C)C(=O)N/N=C/c2ccc([N+](=O)[O-])s2)cc1 (stereo not given) | 15.8 |
| COC1=C(Nc2ccc(O)cc2)C(=O)c2ccccc2C1=O | 5.14 |
| C/C(=N\NC(=O)Cc1ccc(Cl)cc1)c1ccccn1 | 4.22 |
| CCC(=O)N1CCN(c2ccc(NC(=O)c3ccc([N+](=O)[O-])o3)cc2Cl)CC1 | 6.08 |
| Cc1ccc(NC(=O)CCl)cc1S(=O)(=O)N1CCCCCC1 | 7.55 |
| CCC(=O)OCCNc1cc(Sc2nc3ccccc3[nH]2)c2nonc2c1[N+](=O)[O-] | 9.14 |
| COc1cc(CNC2CCCC2)cc(Cl)c1OCc1ccccc1Cl | 17.7 |
| O=C(c1ccc(F)cc1)C(CN1CCOCC1)c1ccccc1 (stereo not given) | 5.96 |
| Cc1ccccc1-c1nc(-c2ccccn2)no1 | 4.18 |
| O=C(/C=C/c1ccc([N+](=O)[O-])s1)N1CCCC1 | 9.86 |
| C=CCn1c(C)cc(C(=O)CN2C(=O)c3ccccc3S2(=O)=O)c1C | 0.666 |
| O=C(N/N=C/c1ccc([N+](=O)[O-])s1)c1cccc(Br)c1 | 4.83 |
| O=C(Nc1ccccc1)NN(C(=O)CCl)c1ccccc1 | 8.5 |
| CC(C)C(=O)N1CCN(c2ccc(NC(=O)c3ccc([N+](=O)[O-])o3)cc2Cl)CC1 | 7.05 |
| CC(=O)Nc1nc(C)c(-c2csc(Nc3cccc(C(C)=O)c3)n2)s1 | 8.38 |
| COC(=O)c1ccc(/C=C(\C#N)C(=O)NC(C)c2ccccc2)cc1 (stereo not given) | 10.7 |
| O=c1c2ccccc2nc(/C=C/c2ccc([N+](=O)[O-])o2)n1-c1ccc(O)cc1 | 4.45 |
| COc1cccc(/C=N/Nc2ncnc3c2ncn3Cc2ccccc2)c1O | 4.6 |
